The source of these data is patent US12269902B2, “Peptide compounds and peptide conjugates for the treatment of cancer through receptor-mediated chemotherapy” (TRANSFERT PLUS, S.E.C., priority 2015, dated 2025).

Non-standard residues stand in square brackets, D forms with d. Residues, ends and D or L forms follow the SMILES beside them. *: point of attachment. X3 = COc1cccc2c1C(=O)c1c(O)c3c(c(O)c1C2=O)C[C@@](O)(C(=O)COC(=O)CC(C)(C)CC(=O)*)C[C@@H]3O[C@H]1C[C@H](N)[C@H](O)[C@H](C)O1; X2 = COc1cc(/C=C/C(=O)CC(=O)/C=C/c2ccc(OC(=O)CC(C)(C)CC(=O)*)c(OC)c2)ccc1O; Nle = CCCC[C@H](N)C(=O)O

Broadly, the IC50 is the concentration needed to halve the response being measured. Read a high IC50 as lower potency.

Series [1] deals with ES-2 ovarian cancer cells. Nature of the series: [3H]-Thymidine incorporation cell proliferation assay, ES-2. The class given is cell-based. The note with it: ES-2 (Ovary). As for the experimental part:
(§1) The effect of the Docetaxel-Katana peptide conjugate on various cell line proliferations was evaluated and compared to unconjugated Docetaxel (Table 4). IC50 values obtained for the Docetaxel-Katana peptide conjugate were very similar to those of Docetaxel in the cancer cells tested.
(§2) The phytochemical Curcumin, unconjugated and conjugated, was also tested on cancer cell proliferation (FIG. 28). Breast cancer cells (MDA-MB231) were incubated with increasing concentrations of KBC106 or curcumin. After 72 hrs, thymidine incorporation assay was performed to assess the anti-proliferative properties of both molecules. IC50 values were extracted from the anti-proliferative curves. […] Proliferation assay was also performed using different types of cancer cells (ovarian, breast, skin and colorectal cancer cells). IC50 values were calculated from the anti-proliferation curves. In all cases, the Curcumin conjugate (KBC106) had stronger anti-proliferative activity (9-100 fold) than unconjugated Curcumin, as shown in Table 6 below.
(§3) Cancer cells were cultured in 96-well white plates (Perkin Elmer). They were synchronized for 24 hours in serum-deprived medium. After incubation of cells with unconjugated drugs (docetaxel, cabazitaxel, doxorubicin) or with drug-Katana peptide conjugates for 2 or 3 days, all media was aspirated and cells were pulse-labeled for 4 hours at 37° C./[…]/5% CO2 with media containing 2.5 μCi/mL [methyl-3H] thymidine (Perkin Elmer). Cells were washed, fixed, and dried before addition of scintillation fluid (Microscint 0, Perkin Elmer). After 24 hours, cell-associated tritium was quantified by counting on a plate reader (TopCount, Perkin Elmer). Incorporated [3H] thymidine was plotted for each drug concentration.
A general note: Incorporation of labelled thymidine or its analogues reports DNA synthesis.

Another series relates to A-375 skin cancer cells. Nature of the series: [3H]-Thymidine incorporation cell proliferation assay, A-375. The class given is cell-based. On the procedure: as §1, §2, §3
Series [2] relates to SK-MEL-28 skin cancer cells. Nature of the series: [3H]-Thymidine incorporation cell proliferation assay, SK-MEL-28. The class given is cell-based. On the procedure: as §1, §2, §3
In series [3] the test system is MDA-MB-231 breast cancer cells. Nature of the series: cells. As for the experimental part: Breast cancer cells (MDA-MB231) were incubated with increasing concentrations of KBC106 or curcumin. After 72 hrs, thymidine incorporation assay was performed to assess the anti-proliferative properties of both molecules. IC50 values were extracted from the anti-proliferative curves.
The phytochemical Curcumin, unconjugated and conjugated, was also tested on cancer cell proliferation (FIG. 28). Breast cancer cells (MDA-MB231) were incubated with increasing concentrations of KBC106 or curcumin. After 72 hrs, thymidine incorporation assay was performed to assess the anti-proliferative properties of both molecules. IC50 values were extracted from the anti-proliferative curves. […] Proliferation assay was also performed using different types of cancer cells (ovarian, breast, skin and colorectal cancer cells). IC50 values were calculated from the anti-proliferation curves.
as §3

Series [4] has as its system ES-2 ovarian cancer cells. The experiment in a line: ES-2 ovarian subcutaneous tumors (Doxorubicin, KBB106). The class given is in vivo, mice. The settings on record: Day 14 post-treatment; equivalent dose of Doxorubicin 6 mg/kg/week. On the procedure:
25A. Mice were implanted in the flank with ES-2 ovarian cancer cells. Tumor growth was measured using a caliper. When tumors reached a tumor volume of about 150 mm^3, mice were treated with Doxorubicin or KBB106 at an equivalent dose of Doxorubicin (6 mg/kg/week). 25B. […] 25C.
(§4) The effect of the conjugated and unconjugated Doxorubicin was also evaluated on ovarian subcutaneous tumors. Mice were implanted in the with ES-2 ovarian cancer cells. Tumor growth was measured using a caliper. When tumors reached a tumor volume of about 150 mm^3, mice were treated with Doxorubicin or Katana-Doxorubicin conjugate KBB106 at an equivalent dose of Doxorubicin (6 mg/kg/week).

Series [5] deals with SKOV3 ovarian cancer cells. Nature of the series: SKOV3 ovarian subcutaneous tumors (KBB106). The note with it: KBB106 18 mg/kg/week. As for the experimental part: 26A. Mice were implanted in the flank with SKOV3 ovarian cancer cells. When tumors reached a volume of about 150 mm^3, mice were treated with KBB106 (18 mg/kg/week) as indicated by the arrows. […] 26B. Body weight of mice was monitored during the treatments.
as §4

For the next series, the target named is T1, sortilin (Homo sapiens, UniProt Q99523).
T1 construct: Ovarian cancer cells were transfected with sortilin siRNA (siSortilin) for 24 hrs and then incubated with KBB106; endogenous in cells
T1 sequence (Q99523 78-831): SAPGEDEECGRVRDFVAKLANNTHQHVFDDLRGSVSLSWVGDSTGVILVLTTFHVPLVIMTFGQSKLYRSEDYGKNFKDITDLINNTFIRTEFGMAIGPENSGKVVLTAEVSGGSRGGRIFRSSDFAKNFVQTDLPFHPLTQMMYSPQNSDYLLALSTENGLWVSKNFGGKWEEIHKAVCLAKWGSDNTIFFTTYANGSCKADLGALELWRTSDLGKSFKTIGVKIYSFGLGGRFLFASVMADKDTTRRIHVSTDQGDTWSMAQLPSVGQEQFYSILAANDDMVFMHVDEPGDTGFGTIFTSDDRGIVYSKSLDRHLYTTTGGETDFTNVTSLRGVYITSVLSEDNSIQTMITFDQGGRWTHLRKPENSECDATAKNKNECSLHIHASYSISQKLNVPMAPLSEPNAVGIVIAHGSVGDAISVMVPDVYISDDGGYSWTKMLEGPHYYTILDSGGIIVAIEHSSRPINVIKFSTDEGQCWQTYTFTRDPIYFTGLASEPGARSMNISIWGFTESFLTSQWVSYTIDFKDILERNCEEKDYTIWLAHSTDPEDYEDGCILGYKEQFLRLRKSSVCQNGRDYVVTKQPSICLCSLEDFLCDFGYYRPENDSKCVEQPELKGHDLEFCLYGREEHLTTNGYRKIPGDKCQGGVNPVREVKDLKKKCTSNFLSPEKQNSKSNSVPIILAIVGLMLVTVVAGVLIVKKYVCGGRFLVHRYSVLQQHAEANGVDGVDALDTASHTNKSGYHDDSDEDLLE
The experiment in a line: Uptake of KBB106 in ovarian cancer cells with reduced sortilin expression. The class given is cell-based. The settings on record: ovarian cancer cells transfected with sortilin siRNA. As for the experimental part: A. Ovarian cancer cells were transfected with sortilin siRNA (siSortilin) for 24 hrs and then incubated with KBB106. Accumulation of KBB106 was monitored by the released of fluorescent Doxorubicin as a function of time. B. Ovarian cancer cells were incubated with KBB106 in the presence or absence of sortilin ligand (Katana peptide, progranulin). KBB106 accumulation was estimated by the released of fluorescent Doxorubicin.
The uptake of the Katana conjugate is increased in cells expressing the sortilin receptor.

Series [6] has as its system HT-29 colorectal cancer cells. The experiment in a line: cells. It counts as cell-based. The settings on record: Table 6. As for the experimental part: as §2, §3
Series [7] concerns HCC-1569 breast cancer cells. The experiment in a line: cells. The class given is cell-based. The note with it: HCC-1569 (HER2+; Herceptin resistant); Table 6. As for the experimental part: as §2, §3
The subject of series [8] is HCC-1954 breast cancer cells. The experiment in a line: cells. The class given is cell-based. The note with it: HCC-1954 (HER2+; Lapatinib resistant); Table 6. On the procedure: as §2, §3
[9] abbreviates: Homo sapiens, A-375 (Skin), Table 4, 2 or 3 days.
Where [10] appears, read: Homo sapiens, SK-MEL-28 (Skin), Table 4, 2 or 3 days.

As for `CO[C@H]1C(=O)[C@]2(C)[C@@H](OC)C[C@H]3OC[C@@]3(OC(C)=O)[C@H]2[C@H](OC(=O)c2ccccc2)[C@]2(O)C[C@H](OC(=O)[C@H](O)[C@@H](NC(=O)OC(C)(C)C)c3ccccc3)C(C)=C1C2(C)C` [Cabazitaxel, cabazitaxel], the IC50 in series [1] (Table 4, 2 or 3 days) stood at 0.66 nM; in the series on A-375 skin cancer cells (setting [9]) it was 0.34 nM; in series [2] (setting [10]), 0.12 nM; in series [3] (Homo sapiens, MDA-MB-231) it was 0.44 nM.
`COc1cccc2c1C(=O)c1c(O)c3c(c(O)c1C2=O)C[C@@](O)(C(=O)CO)C[C@@H]3O[C@H]1C[C@H](N)[C@H](O)[C@H](C)O1` [Doxorubicin, doxorubicin]: the IC50 was 73.5 nM in [1] (Table 4, 2 or 3 days); 11.8 nM with A-375 skin cancer cells (setting [9]); 79.3 nM in [2] (setting [10]); 9.7 nM in [3] (Homo sapiens, MDA-MB-231). Further, the “tumor volume decrease compared to the vehicle group” value in [4] is recorded as 43%.
Take `CCCC[C@H](NC(=O)[C@H](CC(N)=O)NC(=O)[C@H](CCCNC(=N)N)NC(=O)[C@@H](NC(=O)CNC(=O)[C@H](C)NC(=O)[C@H](CCCCNC(=O)CC(C)(C)CC(=O)OCC(=O)[C@]1(O)Cc2c(O)c3c(c(O)c2[C@@H](O[C@H]2C[C@H](N)[C@H](O)[C@H](C)O2)C1)C(=O)c1c(OC)cccc1C3=O)NC(=O)[C@H](C)NC(=O)[C@H](CCCNC(=N)N)NC(=O)[C@@H](NC(=O)CNC(C)=O)C(C)C)C(C)C)C(=O)N[C@@H](Cc1ccccc1)C(=O)N[C@@H](CCCCNC(=O)CC(C)(C)CC(=O)OCC(=O)[C@]1(O)Cc2c(O)c3c(c(O)c2[C@@H](O[C@H]2C[C@H](N)[C@H](O)[C@H](C)O2)C1)C(=O)c1c(OC)cccc1C3=O)C(=O)N[C@@H](CO)C(=O)N[C@@H](CCC(=O)O)C(=O)N[C@@H](CO)C(=O)N[C@@H](Cc1ccc(O)cc1)C(=O)O` [KBB-106, Acetyl-GVRAK(doxorubicin)AGVRN(Nle)FK(doxorubicin)SESY] (Ac-GVRAK(X3)AGVRN[Nle]FK(X3)SESY-OH; C-terminus assumed): in [5], the “effect on body weight” value is reported as “little effect on the body weight” and the “progression of SKOV3 xenograft tumors” value is recorded as “significantly decreased compared to the control group”. Also, the “uptake in cells where sortilin expression was reduced” value on sortilin is on record as “reduced”. Besides, the “tumor volume decrease compared to the vehicle group” value in series [4] worked out at 97%.
Take `CCCC[C@H](NC(=O)[C@H](CC(N)=O)NC(=O)[C@H](CCCNC(=N)N)NC(=O)[C@@H](NC(=O)CNC(=O)[C@H](C)NC(=O)[C@H](CCCCNC(=O)CC(C)(C)CC(=O)Oc1ccc(/C=C/C(=O)CC(=O)/C=C/c2ccc(O)c(OC)c2)cc1OC)NC(=O)[C@H](C)NC(=O)[C@H](CCCNC(=N)N)NC(=O)[C@@H](NC(=O)CNC(C)=O)C(C)C)C(C)C)C(=O)N[C@@H](Cc1ccccc1)C(=O)N[C@@H](CCCCNC(=O)CC(C)(C)CC(=O)Oc1ccc(/C=C/C(=O)CC(=O)/C=C/c2ccc(O)c(OC)c2)cc1OC)C(=O)N[C@@H](CO)C(=O)N[C@@H](CCC(=O)O)C(=O)N[C@@H](CO)C(=O)N[C@@H](Cc1ccc(O)cc1)C(=O)O` [KBC106, Acetyl-GVRAK(curcumin)AGVRN(Nle)FK(curcumin)SESY] (Ac-GVRAK(X2)AGVRN[Nle]FK(X2)SESY-OH; C-terminus assumed): the half-inhibitory concentration (IC50) in series [1] (Table 6) is 1520 nM; in the series on A-375 skin cancer cells (A-375, Table 6), 326 nM; in [2] (SK-MEL-28, Table 6), 243 nM; in [6] it was 3600 nM; in series [7] it was 1010 nM; in [8] it was 1290 nM. In series [3] (MDA-MB231 (Triple negative), Table 6, 72 hrs), inhibition was half-maximal at 135 nM (IC50).
